The record followed here is PubChem BioAssay AID330 (DTP/NCI, 2004).

The subject of the experiment is P388 leukemia ip, CD2F1 mice, survival T/C. Put plainly: NCI In Vivo Anticancer Drug Screen. Data for tumor model P388 Leukemia (intraperitoneal) in CD2F1 (CDF1) mice. Conditions: endpoint: median survival time, higher = longer survival. Put shortly: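 Mice carrying the transplanted tumor received test compound or vehicle. Survival was recorded in each group, and the value is the treated-group measurement divided by that of the vehicle-treated control group.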

Where [1] appears, read: dose: 100.0 mg/kg/injection, schedule: Q01DX001 (ip), vehicle: saline with Tween-80.
Setting [2] is: dose: 200.0 mg/kg/injection, schedule: Q01DX001 (ip), vehicle: saline with Tween-80.
The mark [3] stands for this setting: dose: 400.0 mg/kg/injection, schedule: Q01DX001 (ip), vehicle: saline with Tween-80.
Setting [4] is: dose: 50.0 mg/kg/injection, schedule: Q01DX005 (ip), vehicle: Klucel (hydroxypropylcellulose) (HPC).
Setting [5] is: dose: 100.0 mg/kg/injection, schedule: Q01DX005 (ip), vehicle: Klucel (hydroxypropylcellulose) (HPC).
[6] abbreviates: dose: 200.0 mg/kg/injection, schedule: Q01DX005 (ip), vehicle: Klucel (hydroxypropylcellulose) (HPC).
Where [7] appears, read: dose: 60.0 mg/kg/injection, schedule: Q01DX005 (ip), vehicle: saline with Tween-80.
The mark [8] stands for this setting: dose: 120.0 mg/kg/injection, schedule: Q01DX005 (ip), vehicle: saline with Tween-80.
Setting [9] is: dose: 60.0 mg/kg/injection, schedule: Q01DX005 (ip), vehicle: Klucel (hydroxypropylcellulose) (HPC).
Where [10] appears, read: dose: 240.0 mg/kg/injection, schedule: Q01DX005 (ip), vehicle: Klucel (hydroxypropylcellulose) (HPC).

Values joined by “and” are separate entries in the source; they are usually repeats but may differ in a detail not shown here. Equal values may be shown once. Toxic doses and inconclusive results are not listed.

For the compound `CCCN=C(N)c1ccc(N=C(N)c2ccc(N=C(N)c3ccc(C(N)=NCCC)cc3)cc2)cc1`, the T/C is, setting by setting: (dose: 0.08 mg/kg/injection, schedule: Q01DX009 (ip), vehicle: saline) 100 % of control; (dose: 0.15 mg/kg/injection, schedule: Q01DX009 (ip), vehicle: saline) 100 % of control; (dose: 0.3 mg/kg/injection, schedule: Q01DX009 (ip), vehicle: saline) 110 % of control; (dose: 1.25 mg/kg/injection, schedule: Q01DX009 (ip), vehicle: saline) 154 % of control; (dose: 2.5 mg/kg/injection, schedule: Q01DX009 (ip), vehicle: saline) 118 % of control; (dose: 5.0 mg/kg/injection, schedule: Q04DX003 (ip), vehicle: saline with Tween-80) 95 % of control. Moreover, the T/C (dose: 10.0 mg/kg/injection, schedule: Q01DX009 (ip), vehicle: saline) was 150 % of control; the T/C (dose: 10.0 mg/kg/injection, schedule: Q04DX003 (ip), vehicle: saline with Tween-80) was 100 % of control; the T/C (dose: 15.0 mg/kg/injection, schedule: Q01DX009 (ip), vehicle: saline) is 172 % of control; the T/C (dose: 20.0 mg/kg/injection, schedule: Q01DX009 (ip), vehicle: saline with Tween-80) was 200 % of control; the T/C (dose: 20.0 mg/kg/injection, schedule: Q04DX003 (ip), vehicle: saline with Tween-80) is 100 % of control.
As for `COC(=O)c1cn(C(C)=O)c(C)c1C(=O)OC`, the T/C reads like this: under setting [1], 100 % of control; under setting [2], 95 % of control; under setting [3], 104 % of control.
`O=C1C2CCCC1C(c1ccccc1Cl)NC2c1ccccc1Cl` (centres undefined): the T/C is, setting by setting: (dose: 100.0 mg/kg/injection, schedule: Q04DX003 (ip), vehicle: saline) 89 % of control; (dose: 200.0 mg/kg/injection, schedule: Q04DX003 (ip), vehicle: saline) 96 % of control; (dose: 400.0 mg/kg/injection, schedule: Q04DX003 (ip), vehicle: saline) 94 % of control.
`O=c1oc2c(cc1-c1ccccc1)CCCC2`: the T/C was 102 % of control under setting [4], 104 % of control under setting [5] and 103 % of control under setting [6].
On to `NC1=C(O)C(=O)C(c2ccccc2O)O1` (centres undefined), for which the T/C reads like this: (dose: 30.0 mg/kg/injection, schedule: Q01DX005 (ip), vehicle: suspension in saline) 104 % of control; (dose: 60.0 mg/kg/injection, schedule: Q01DX005 (ip), vehicle: suspension in saline) 103 % of control; (dose: 120.0 mg/kg/injection, schedule: Q01DX005 (ip), vehicle: suspension in saline) 89 % of control and 97 % of control; (dose: 240.0 mg/kg/injection, schedule: Q01DX005 (ip), vehicle: suspension in saline) 88 % of control.
On to `N#Cc1ccc(N2C(=O)c3ccc(C(O)(C(F)(F)F)C(F)(F)F)cc3C2=O)cc1C#N`, for which the T/C reads like this: (dose: 50.0 mg/kg/injection, schedule: Q01DX009 (ip), vehicle: Klucel (hydroxypropylcellulose) (HPC)) 103 % of control; (dose: 100.0 mg/kg/injection, schedule: Q01DX009 (ip), vehicle: Klucel (hydroxypropylcellulose) (HPC)) 103 % of control; (dose: 200.0 mg/kg/injection, schedule: Q01DX009 (ip), vehicle: Klucel (hydroxypropylcellulose) (HPC)) 99 % of control.
Regarding `C/C=C(\NN=NC)c1ccccc1`, the T/C (dose: 200.0 mg/kg/injection, schedule: Q04DX002 (ip), vehicle: saline with Tween-80) is 166 % of control.
Turning to `C=C(CO)C(=O)OC1CC(=C)C2CC(O)C(C)C2C2OC(=O)C(=C)C12` (centres undefined), the T/C reads like this: (dose: 0.75 mg/kg/injection, schedule: Q01DX009 (ip), vehicle: Klucel (hydroxypropylcellulose) (HPC)) 100 % of control and 114 % of control; (dose: 1.5 mg/kg/injection, schedule: Q01DX009 (ip), vehicle: Klucel (hydroxypropylcellulose) (HPC)) 104 % of control and 91 % of control; (dose: 3.0 mg/kg/injection, schedule: Q01DX009 (ip), vehicle: Klucel (hydroxypropylcellulose) (HPC)) 98 % of control and 97 % of control; (dose: 6.0 mg/kg/injection, schedule: Q01DX009 (ip), vehicle: Klucel (hydroxypropylcellulose) (HPC)) 102 % of control and 107 % of control and 112 % of control; (dose: 12.0 mg/kg/injection, schedule: Q01DX009 (ip), vehicle: Klucel (hydroxypropylcellulose) (HPC)) 103 % of control; (dose: 24.0 mg/kg/injection, schedule: Q01DX009 (ip), vehicle: Klucel (hydroxypropylcellulose) (HPC)) 98 % of control.
As for `CC(C)(C)c1ccc(SS(=O)(=O)c2ccc(C(C)(C)C)cc2)cc1`, the T/C is 98 % of control under setting [1]; 97 % of control (dose: 100.0 mg/kg/injection, schedule: Q04DX003 (ip), vehicle: Klucel (hydroxypropylcellulose) (HPC)); 100 % of control under setting [2]; 104 % of control (dose: 200.0 mg/kg/injection, schedule: Q04DX003 (ip), vehicle: Klucel (hydroxypropylcellulose) (HPC)); 97 % of control under setting [3]; 105 % of control (dose: 400.0 mg/kg/injection, schedule: Q04DX003 (ip), vehicle: Klucel (hydroxypropylcellulose) (HPC)).
Take `CC1(C)C(C=O)=CCC1CC(N)=O` (centres undefined): the T/C reads like this: under setting [7], 117 % of control; under setting [8], 111 % of control.
Regarding `COc1cc2ccncc2cc1Oc1c(OC)c(OC)cc2ccncc12`, the T/C runs as follows: under setting [9], 100 % of control; (dose: 120.0 mg/kg/injection, schedule: Q01DX005 (ip), vehicle: Klucel (hydroxypropylcellulose) (HPC)) 90 % of control; under setting [10], 100 % of control.
As to `O=c1c2cc(Cl)cc(Cl)c2nc2n1S(=O)(=O)c1ccccc1N2c1ccccc1`, the T/C by setting is: under setting [1], 94 % of control; under setting [2], 91 % of control; under setting [3], 95 % of control.
Take `[CH3][Sn]1([CH3])[O]C(=O)c2ccccc2C(=O)[O]1`: the T/C (dose: 12.5 mg/kg/injection, schedule: Q01DX001 (ip), vehicle: Klucel (hydroxypropylcellulose) (HPC)) is 102 % of control and 111 % of control; the T/C (dose: 25.0 mg/kg/injection, schedule: Q01DX001 (ip), vehicle: Klucel (hydroxypropylcellulose) (HPC)) was 101 % of control and 102 % of control; the T/C (dose: 50.0 mg/kg/injection, schedule: Q01DX001 (ip), vehicle: Klucel (hydroxypropylcellulose) (HPC)) is 100 % of control.
Consider `CCOC(=O)[C@@H](F)[C@H](Br)C(=O)OCC`, for which the T/C by setting is: (dose: 50.0 mg/kg/injection, schedule: Q01DX009 (ip), vehicle: saline with Tween-80) 100 % of control and 110 % of control; (dose: 100.0 mg/kg/injection, schedule: Q01DX009 (ip), vehicle: saline with Tween-80) 113 % of control and 122 % of control.
For the compound `O=C1C=Cc2cccc3ccc(O)c1c23`, the T/C is 104 % of control under setting [4], 109 % of control under setting [5] and 104 % of control under setting [6].
With `NC(=O)CCCC(C(N)=O)(c1ccccc1)c1ccccc1`, the T/C by setting is: (dose: 100.0 mg/kg/injection, schedule: Q01DX001 (ip), vehicle: Klucel (hydroxypropylcellulose) (HPC)) 101 % of control; (dose: 200.0 mg/kg/injection, schedule: Q01DX001 (ip), vehicle: Klucel (hydroxypropylcellulose) (HPC)) 100 % of control; (dose: 400.0 mg/kg/injection, schedule: Q01DX001 (ip), vehicle: Klucel (hydroxypropylcellulose) (HPC)) 100 % of control.
Turning to `COc1ccc(C2c3c(ccc4ccccc34)Oc3ccc4ccccc4c32)cc1`, the T/C was 87 % of control under setting [7]; 86 % of control under setting [8]; 90 % of control (dose: 240.0 mg/kg/injection, schedule: Q01DX005 (ip), vehicle: saline with Tween-80).
As to `Cc1ccc(S(=O)(=O)CN(CN2C(=O)CCC2=O)c2ccc(Cl)cc2)cc1`, the T/C by setting is: (dose: 15.0 mg/kg/injection, schedule: Q01DX005 (ip), vehicle: Klucel (hydroxypropylcellulose) (HPC)) 101 % of control; (dose: 30.0 mg/kg/injection, schedule: Q01DX005 (ip), vehicle: Klucel (hydroxypropylcellulose) (HPC)) 95 % of control; under setting [9], 91 % of control and 93 % of control; under setting [10], 90 % of control.
`CC(=O)OC1CCC2CC3(CCC1(C)C2=O)OCCO3` (centres undefined): the T/C reads like this: (dose: 100.0 mg/kg/injection, schedule: Q04DX003 (ip), vehicle: saline + Tween-80 + alcohol) 100 % of control; (dose: 200.0 mg/kg/injection, schedule: Q04DX003 (ip), vehicle: saline + Tween-80 + alcohol) 99 % of control; (dose: 400.0 mg/kg/injection, schedule: Q04DX003 (ip), vehicle: saline + Tween-80 + alcohol) 103 % of control.
